Key:
TLR7 [1] = molecular target: T1, TLR7 (Homo sapiens, UniProt Q9NYK1); assay: IFN-α1-luciferase reporter assay in genetically modified Namalwa cells, TLR7; assay type: cell-based; parameters: expressed in transfected cells; host or cells: Namalwa (ATCC CRL-1432); conditions: 10 μM IRM, 18 hours
T1 sequence (Q9NYK1 27-1049): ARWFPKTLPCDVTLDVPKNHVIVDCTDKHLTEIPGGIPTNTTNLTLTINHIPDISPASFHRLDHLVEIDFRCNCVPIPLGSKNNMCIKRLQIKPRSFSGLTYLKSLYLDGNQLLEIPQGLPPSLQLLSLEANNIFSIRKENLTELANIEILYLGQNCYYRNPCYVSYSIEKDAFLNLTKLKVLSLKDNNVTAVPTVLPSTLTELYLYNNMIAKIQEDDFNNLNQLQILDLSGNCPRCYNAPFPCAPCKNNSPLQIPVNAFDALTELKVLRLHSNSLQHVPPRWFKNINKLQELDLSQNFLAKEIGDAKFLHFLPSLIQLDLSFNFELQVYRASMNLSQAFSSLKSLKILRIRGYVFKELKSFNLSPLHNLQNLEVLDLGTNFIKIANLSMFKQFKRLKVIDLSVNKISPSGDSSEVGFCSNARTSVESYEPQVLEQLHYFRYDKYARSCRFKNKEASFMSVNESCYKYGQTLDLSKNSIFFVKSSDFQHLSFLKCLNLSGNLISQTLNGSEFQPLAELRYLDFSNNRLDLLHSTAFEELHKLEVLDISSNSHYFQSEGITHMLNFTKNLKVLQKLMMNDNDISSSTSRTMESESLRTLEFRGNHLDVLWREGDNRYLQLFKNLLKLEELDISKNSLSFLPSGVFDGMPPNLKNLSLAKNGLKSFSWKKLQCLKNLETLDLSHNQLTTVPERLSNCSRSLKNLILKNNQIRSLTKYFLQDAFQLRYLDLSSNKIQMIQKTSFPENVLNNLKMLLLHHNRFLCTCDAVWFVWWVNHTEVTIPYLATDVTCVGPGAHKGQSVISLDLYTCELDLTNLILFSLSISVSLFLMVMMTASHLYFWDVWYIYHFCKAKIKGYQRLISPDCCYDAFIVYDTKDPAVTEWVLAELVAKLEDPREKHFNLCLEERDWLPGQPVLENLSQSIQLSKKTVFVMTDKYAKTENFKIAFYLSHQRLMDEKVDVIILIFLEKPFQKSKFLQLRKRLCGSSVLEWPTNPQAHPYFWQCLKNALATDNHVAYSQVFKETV
Experimental: Results are shown in Table 6 and are expressed as fold induction of IFN-α1 —induced luciferase signal, again with respect to a vehicle control.
The assay identified TLR6-selective compounds (i.e., compounds that modulate TLR6-mediated activity, but not TLR7-mediated activity), TLR7-selective compounds (compounds that modulate TLR7-mediated activity, but not TLR6-mediated activity), and compounds that modulate cellular activity through both TLR6 and TLR7.
Unless otherwise indicated, all incubations were performed at 37° C. with 5% CO2 at 98% humidity.
Culture medium was prepared from complete RPMI 1640 medium (BioSource International, Inc., Camarillo, Calif.). Fetal bovine serum (Atlas Biologicals, Inc., Ft. Collins, Colo.) was added to a final concentration of 7.5% (vol/vol); L-glutamine (BioSource International, Inc.) was added to 5 mM; and sodium pyruvate (BioSource International, Inc.) was added to 1 mM.
Namalwa cells were grown by incubation in culture medium overnight. Cells were harvested by centrifugation in a tabletop centrifuge (1200 RPM for 5 minutes), and then resuspended in phosphate buffered sucrose to a concentration of 1.3×10^7 cells/mL. […]
The electroporated cells were suspended in 10 mLs of culture medium and incubated overnight. Dead cells and debris were removed after 24 hours using a MACS Dead Cell Removal kit (Miltenyi Biotec, Auburn, Calif.). Cells were resuspended in 10 mL of culture medium and incubated for an additional 24 hours.
Transfected cells were selected by adding G418 (Promega Corp., Madison, Wis.) to a final concentration of 1 mg/mL and incubating the cells for seven days.
The selected transfected cells were counted and resuspended to a concentration of 1×10^6 cell per mL in culture medium. 100 μl aliquots of cells were placed in the wells of a white-walled, white-bottomed 96-well plate (Corning, Inc., Corning, N.Y.). 1.0 μL of an IRM compound from Table 1 (prepared at 1 mM in 100% DMSO) was added to some cell aliquots so that the final concentration of IRM compound was 10 μM. As a positive control, some cell aliquots were incubated with Sendai virus instead of IRM compound. As a negative control, some cell aliquots were incubated with DMSO without IRM compound. In all cases, the cells were incubated for 18 hours.
The plates were equilibrated to room temperature before one volume of reconstituted LucLight Plus (Packard Instruments, Meriden, Conn.) was added to each aliquot of cells. Each well of the plate was read on an LJL Analyst (LJL Biosystems, Inc., Sunnyvale, Calif.) set with a 5 minute dark adapt. Results are shown in Table 6 and are expressed as fold increase of the IFN-αl—induced luciferase signal compared to a DMSO control.

TLR7 [2] = molecular target: T1, TLR7; assay: NFκB-luciferase reporter assay in HEK293 cells transfected with human TLR7 (HEK293-TLR7); assay type: cell-based; parameters: expressed in transfected cells; host or cells: HEK293 (ATCC CRL-1573), pIRES vector, G-418 selected; conditions: HEK293-TLR7, 10 μM IRM, 16 hours
Experimental: A compound was identified as increasing cellular activity mediated through a given TLR if it induced at least a two-fold increase in NFκB-induced luciferase signal compared to the control.
HEK293 medium was prepared from 90% Minimum Essential Medium (MEM) with 2 mM L-glutamine and Earle's Balanced Salt Solution (Invitrogen Corp., Rockville, Md.) adjusted to contain 1.5 g/L sodium bicarbonate, 0.1 mM non-essential amino acids, and 1.0 mM sodium pyruvate; 10% heat-inactivated fetal calf serum. HEK293 cells were cultured by incubating cells in HEK293 medium overnight at 37° C., 8% CO2.
The cells were co-transfected with (1) pIRES (BD Biosciences Clontech, Palo Alto, Calif.) either (a) unmodified (HEK293-vector), (b) containing an expressible human TLR7 gene (HEK293-TLR7), or (c) containing an expressible human TLR8 gene (HEK293-TLR8), and (2) NFκB-luc reporter (Stratagene, La Jolla, Calif.) in a 10:1 ratio with Fugene 6 transfection reagent (Roche Diagnostics Corp., Indianapolis, Ind.) following the manufacturer's instructions.
The cells were stimulated with 1 μL of IRM compounds at 1 mM in DMSO (final IRM concentration of 10 μM) or 1 μL DMSO as a control. The plates were then incubated an additional 16 hours at 37° C., 5% CO2. The luciferase signal was read using the LucLite kit (Packard Instrument Co., Meriden, Conn.). Luminescence was measured on an LMAX luminometer (Molecular Devices Corp., Sunnyvale, Calif.).

Structure (SMILES) | TLR7: fold increase of the IFN-α1-induced luciferase signal compared to a DMSO control (TLR7 [1]) [fold increase] | TLR7: fold increase of NFκB-induced luciferase signal compared to a DMSO control (TLR7 [2]) [fold increase]
CCOCc1nc2c(N)nc3ccccc3c2n1CC(C)C [IRM1, 2-(ethoxymethyl)-1-(2-methylpropyl)-1H-imidazo[4,5-c]quinolin-4-amine] | 2.43 | 4.05
CCc1nc2c(N)nc3ccccc3c2n1CCCCNC(=O)C1CCCCC1 [IRM8, N-[4-(4-amino-2-ethyl-1H-imidazo[4,5-c]quinolin-1-yl)butyl]cyclohexanecarboxamide] | 2.89 | 6.04
CCc1nc2c(N)nc3ccccc3c2n1CCCCSc1cc(Cl)cc(Cl)c1 [IRM14, 1-{4-[(3,5-dichlorophenyl)thio]butyl}-2-ethyl-1H-imidazo[4,5-c]quinolin-4-amine] | 1.40 | 0.67
CCOCc1nc2c(N)nc3c(c2n1CC(C)(C)O)CCCC3 [IRM16, 4-amino-2-ethoxymethyl-α,α-dimethyl-6,7,8,9-tetrahydro-1H-imidazo[4,5-c]quinoline-1-ethanol] | 2.96 | 5.54
COCCc1nc2c(N)nc3c(c2n1CC(C)(C)NS(C)(=O)=O)CCCC3 [IRM22, N-{2-[4-amino-2-(2-methoxyethyl)-6,7,8,9-tetrahydro-1H-imidazo[4,5-c]quinolin-1-yl]-1,1-dimethylethyl}methanesulfonamide] | 3.59 | 6.57

Continued, values first:

TLR7: fold increase of the IFN-α1-induced luciferase signal compared to a DMSO control (TLR7 [1]) [fold increase] | TLR7: fold increase of NFκB-induced luciferase signal compared to a DMSO control (TLR7 [2]) [fold increase] | Structure (SMILES)
2.86 | 6.37 | COCCc1nc2c(N)nc3ccccc3c2n1CCOCCN(C)C(=O)C1CCCCC1 [IRM3, N-(2-{2-[4-amino-2-(2-methoxyethyl)-1H-imidazo[4,5-c]quinolin-1-yl]ethoxy}ethyl)-N-methylcyclohexanecarboxamide]
3.09 | 8.46 | CCCCc1nc2c(N)nc3ccccc3c2n1CCCCCS(C)(=O)=O [IRM6, 2-butyl-1-[5-(methylsulfonyl)pentyl]-1H-imidazo[4,5-c]quinolin-4-amine]
2.63 | 2.45 | COCCc1nc2c(N)nc3ccccc3c2n1CCOCCNC(=O)Nc1ccccc1 [IRM19, N-(2-{2-[4-amino-2-(2-methoxyethyl)-1H-imidazo[4,5-c]quinolin-1-yl)ethoxy}ethyl)-N′-phenylurea]
3.48 | 7.08 | CCC(C)NC(=S)NCCn1c(CCOC)nc2c(N)nc3ccccc3c21 (stereo not drawn) [IRM21, N-{2-[4-amino-2-(2-methoxyethyl)-1H-imidazo[4,5-c]quinolin-1-yl]ethyl}-N′-sec-butylthiourea]

Source: US20040171086A1, “Selective modulation of TLR-mediated biological activity” (3M Innovative Properties Company, priority 2003, published 2004)
